{"source": "patent US9309236B2", "about": "“PI-kinase inhibitors with broad spectrum anti-infective activity” (The Board of Trustees of the Leland Stanford Junior …, priority 2011, dated 2016)", "key": {"HA-tagged human PI4KIIIα": {"target": "HA-tagged human PI4KIIIα (Homo sapiens, UniProt P42356)", "test": "PI4KIIIα immunoprecipitate kinase assay with [γ-32P]-ATP", "type": "biochemical", "conditions": "in vitro enzyme assays; read-out: IC50 PI4KIIIα", "procedure": "(§1) In the assays described here, p110α-p85 complex and p110γ were acquired from Millipore. Assays were performed with La-phosphatidylinositol (Avanti) as described in Knight et al. Nat. […] Inhibitor series were prepared 10% DMSO as 5× stocks for the assay. […] COS-7 cells were cultured in 10 cm dishes and transfected at 70% confluence with 10 μg of plasmid DNA (HA-tagged bovine PI4KIIIβ, HA-tagged human PI4KIIIα) using Lipofectamine 2000 and 5 ml Opti-MEM following the manufacturer's instructions. After 5 hours the transfection medium was replaced with 10 ml complete DMEM. 36 hrs post transfection, cells were washed once with 5 ml PBS (pH 7.4) and lysed in 1 ml of lysis buffer (1) on ice. […] To the lysates was added 200 μl of protein G Sepharose 4 fast flow beads that were prewashed with PBS and lysis buffer and 2 μg of anti-HA antibody. The tubes were then incubated overnight at 4 degrees C. in a tube rotator. […] Kinase reactions were run in a mixture of 45 μL of PI buffer (1 mM PI in kinase buffer), 10 μL of immunoprecipitated beads, 2 μL of inhibitors (dissolved and diluted in DMSO) or DMSO and 5 μL of [γ-^32P]-ATP (1 mM and 2 μCi/tube). The immunoprecipitates in PI buffer were pre-incubated with the drugs for 20 min prior the initiation of kinase reaction by adding ATP and the reactions were carried out for 30 min in 15 ml polypropolyne tubes. Reactions were terminated by addition of 3 ml of CHCl3:CH3OH:HCl (200:100:0.75) followed by 0.6 ml of 0.6N HCl to induce phase separation. The mixtures were vortexed, centrifuged at 2000 rpm for 2 min and the upper phase was discarded. To the lower phase was added 1.5 ml of CHCl3:CH3OH:0.6N HCl (3:48:47) and the mixture vortexed and centrifuged at 2000 rpm for 2 min. The lower phase was then transferred to counting vials and evaporated. Samples were counted in a scintillation beta counter after adding 5 ml of Instafluor (Perkin-Elmer)."}, "p110γ": {"target": "p110γ (Homo sapiens, UniProt P48736)", "sequence (P48736 whole entry, species assumed)": "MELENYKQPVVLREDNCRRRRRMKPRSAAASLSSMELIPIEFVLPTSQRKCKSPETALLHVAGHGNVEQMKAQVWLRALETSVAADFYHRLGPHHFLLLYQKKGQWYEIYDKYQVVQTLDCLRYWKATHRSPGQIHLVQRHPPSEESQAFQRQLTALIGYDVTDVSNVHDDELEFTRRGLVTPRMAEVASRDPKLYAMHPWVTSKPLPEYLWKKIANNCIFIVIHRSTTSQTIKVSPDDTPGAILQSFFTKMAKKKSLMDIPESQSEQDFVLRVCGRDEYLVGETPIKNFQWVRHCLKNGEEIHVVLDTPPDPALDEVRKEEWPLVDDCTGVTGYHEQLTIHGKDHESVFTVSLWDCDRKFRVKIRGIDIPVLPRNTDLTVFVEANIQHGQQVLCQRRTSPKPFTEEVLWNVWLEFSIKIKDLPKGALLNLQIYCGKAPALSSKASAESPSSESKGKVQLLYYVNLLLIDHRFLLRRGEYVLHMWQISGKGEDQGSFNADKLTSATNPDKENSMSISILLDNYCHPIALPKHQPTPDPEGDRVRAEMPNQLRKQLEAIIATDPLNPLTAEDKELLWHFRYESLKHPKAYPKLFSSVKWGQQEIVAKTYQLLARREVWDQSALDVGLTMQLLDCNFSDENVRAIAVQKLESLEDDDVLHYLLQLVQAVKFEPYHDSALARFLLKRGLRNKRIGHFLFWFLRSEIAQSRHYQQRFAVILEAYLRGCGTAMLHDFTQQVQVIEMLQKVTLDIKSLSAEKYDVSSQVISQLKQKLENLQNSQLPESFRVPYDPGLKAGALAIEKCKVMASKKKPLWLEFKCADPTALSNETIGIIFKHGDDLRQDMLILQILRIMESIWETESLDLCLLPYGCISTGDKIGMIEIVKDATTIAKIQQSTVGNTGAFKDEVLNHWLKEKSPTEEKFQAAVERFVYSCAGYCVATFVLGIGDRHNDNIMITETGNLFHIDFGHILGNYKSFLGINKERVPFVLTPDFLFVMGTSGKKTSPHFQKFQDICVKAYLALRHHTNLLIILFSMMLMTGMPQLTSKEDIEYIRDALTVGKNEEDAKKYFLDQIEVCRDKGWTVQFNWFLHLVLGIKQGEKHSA", "test": "PI3-kinase p110γ lipid kinase assay", "type": "biochemical", "conditions": "read-out: IC50 PI3K 110g", "procedure": "as §1, with “Nat. Protoc.” for “Nat.”\n(§2) Compounds are tested in C.1.1. PI kinase assays as described by Shokat et al., “A membrane capture assay for lipid kinase activity.” Nat. Protoc."}, "PI3K C2b": {"target": "PI3K C2b (Homo sapiens, UniProt O00750)", "sequence (O00750 whole entry)": "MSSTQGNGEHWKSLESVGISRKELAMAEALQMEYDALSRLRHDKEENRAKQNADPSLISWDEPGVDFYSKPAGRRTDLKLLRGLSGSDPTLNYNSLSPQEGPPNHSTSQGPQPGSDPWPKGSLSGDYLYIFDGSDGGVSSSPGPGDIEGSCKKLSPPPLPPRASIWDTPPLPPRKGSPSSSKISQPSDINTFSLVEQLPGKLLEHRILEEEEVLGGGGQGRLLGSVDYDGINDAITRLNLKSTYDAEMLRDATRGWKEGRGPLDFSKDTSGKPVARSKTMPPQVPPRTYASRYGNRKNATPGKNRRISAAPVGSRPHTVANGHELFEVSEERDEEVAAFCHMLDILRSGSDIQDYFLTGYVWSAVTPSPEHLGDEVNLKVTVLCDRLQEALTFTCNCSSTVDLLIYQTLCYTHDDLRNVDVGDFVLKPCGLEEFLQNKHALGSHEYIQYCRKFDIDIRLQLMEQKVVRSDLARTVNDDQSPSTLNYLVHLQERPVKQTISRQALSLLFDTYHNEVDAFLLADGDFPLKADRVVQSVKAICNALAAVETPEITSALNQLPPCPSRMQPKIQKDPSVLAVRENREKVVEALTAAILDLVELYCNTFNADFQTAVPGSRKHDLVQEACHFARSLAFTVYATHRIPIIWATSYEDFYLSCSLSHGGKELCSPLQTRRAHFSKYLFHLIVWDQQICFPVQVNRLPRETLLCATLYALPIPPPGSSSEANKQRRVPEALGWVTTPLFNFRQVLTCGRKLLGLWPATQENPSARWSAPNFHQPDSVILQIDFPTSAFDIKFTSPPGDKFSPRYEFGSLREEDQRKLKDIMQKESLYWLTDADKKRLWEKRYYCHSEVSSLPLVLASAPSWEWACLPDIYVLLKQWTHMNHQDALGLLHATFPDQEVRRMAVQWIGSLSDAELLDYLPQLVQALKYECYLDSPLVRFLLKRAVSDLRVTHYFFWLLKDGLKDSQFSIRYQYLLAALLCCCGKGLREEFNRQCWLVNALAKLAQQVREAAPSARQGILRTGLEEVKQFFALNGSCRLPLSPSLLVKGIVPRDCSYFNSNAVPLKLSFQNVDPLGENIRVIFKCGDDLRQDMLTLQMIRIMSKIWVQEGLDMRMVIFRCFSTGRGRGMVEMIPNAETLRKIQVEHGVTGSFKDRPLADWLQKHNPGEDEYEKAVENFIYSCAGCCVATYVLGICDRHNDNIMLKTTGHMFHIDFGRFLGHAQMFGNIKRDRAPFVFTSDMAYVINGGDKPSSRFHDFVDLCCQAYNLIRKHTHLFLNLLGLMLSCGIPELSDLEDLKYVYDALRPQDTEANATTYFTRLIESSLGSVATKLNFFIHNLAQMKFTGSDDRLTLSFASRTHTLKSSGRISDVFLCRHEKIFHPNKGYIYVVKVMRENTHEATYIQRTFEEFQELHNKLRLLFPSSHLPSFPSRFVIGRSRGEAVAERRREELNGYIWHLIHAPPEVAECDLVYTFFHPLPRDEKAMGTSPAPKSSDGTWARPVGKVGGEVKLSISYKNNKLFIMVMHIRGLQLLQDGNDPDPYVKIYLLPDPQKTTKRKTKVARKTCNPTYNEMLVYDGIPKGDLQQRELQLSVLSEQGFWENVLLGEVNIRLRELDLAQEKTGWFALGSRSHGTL", "test": "PI3-kinase C2β (type II PI3-kinase beta) kinase assay", "type": "biochemical", "procedure": "Compounds are tested in C.1.1. PI kinase assays as described by Shokat et al., “A membrane capture assay for lipid kinase activity.” Nat. Protoc. 2007; 2(10):2459-66."}, "[1]": {"test": "Cytotoxicity CC50 in Huh7.5 cells", "type": "cell-based", "conditions": "human, Huh7.5 cells", "procedure": "For all of the assays described above, EC50, EC90, and CC50 values are determined, and experiments are performed starting drug treatments at various times post initiation of infection to help localize the most sensitive aspects of each pathogen's life cycle to PI 4-kinase inhibition."}, "human rhinovirus 14": {"test_system": "human rhinovirus 14", "test": "Rhinovirus assay: protection of HeLa S3 cells from cytopathic effect", "type": "cell-based", "conditions": "Rhinovirus B, HRV14"}, "PI3K C2a": {"target": "PI3K C2a (Homo sapiens, UniProt O00443)", "sequence (O00443 whole entry)": "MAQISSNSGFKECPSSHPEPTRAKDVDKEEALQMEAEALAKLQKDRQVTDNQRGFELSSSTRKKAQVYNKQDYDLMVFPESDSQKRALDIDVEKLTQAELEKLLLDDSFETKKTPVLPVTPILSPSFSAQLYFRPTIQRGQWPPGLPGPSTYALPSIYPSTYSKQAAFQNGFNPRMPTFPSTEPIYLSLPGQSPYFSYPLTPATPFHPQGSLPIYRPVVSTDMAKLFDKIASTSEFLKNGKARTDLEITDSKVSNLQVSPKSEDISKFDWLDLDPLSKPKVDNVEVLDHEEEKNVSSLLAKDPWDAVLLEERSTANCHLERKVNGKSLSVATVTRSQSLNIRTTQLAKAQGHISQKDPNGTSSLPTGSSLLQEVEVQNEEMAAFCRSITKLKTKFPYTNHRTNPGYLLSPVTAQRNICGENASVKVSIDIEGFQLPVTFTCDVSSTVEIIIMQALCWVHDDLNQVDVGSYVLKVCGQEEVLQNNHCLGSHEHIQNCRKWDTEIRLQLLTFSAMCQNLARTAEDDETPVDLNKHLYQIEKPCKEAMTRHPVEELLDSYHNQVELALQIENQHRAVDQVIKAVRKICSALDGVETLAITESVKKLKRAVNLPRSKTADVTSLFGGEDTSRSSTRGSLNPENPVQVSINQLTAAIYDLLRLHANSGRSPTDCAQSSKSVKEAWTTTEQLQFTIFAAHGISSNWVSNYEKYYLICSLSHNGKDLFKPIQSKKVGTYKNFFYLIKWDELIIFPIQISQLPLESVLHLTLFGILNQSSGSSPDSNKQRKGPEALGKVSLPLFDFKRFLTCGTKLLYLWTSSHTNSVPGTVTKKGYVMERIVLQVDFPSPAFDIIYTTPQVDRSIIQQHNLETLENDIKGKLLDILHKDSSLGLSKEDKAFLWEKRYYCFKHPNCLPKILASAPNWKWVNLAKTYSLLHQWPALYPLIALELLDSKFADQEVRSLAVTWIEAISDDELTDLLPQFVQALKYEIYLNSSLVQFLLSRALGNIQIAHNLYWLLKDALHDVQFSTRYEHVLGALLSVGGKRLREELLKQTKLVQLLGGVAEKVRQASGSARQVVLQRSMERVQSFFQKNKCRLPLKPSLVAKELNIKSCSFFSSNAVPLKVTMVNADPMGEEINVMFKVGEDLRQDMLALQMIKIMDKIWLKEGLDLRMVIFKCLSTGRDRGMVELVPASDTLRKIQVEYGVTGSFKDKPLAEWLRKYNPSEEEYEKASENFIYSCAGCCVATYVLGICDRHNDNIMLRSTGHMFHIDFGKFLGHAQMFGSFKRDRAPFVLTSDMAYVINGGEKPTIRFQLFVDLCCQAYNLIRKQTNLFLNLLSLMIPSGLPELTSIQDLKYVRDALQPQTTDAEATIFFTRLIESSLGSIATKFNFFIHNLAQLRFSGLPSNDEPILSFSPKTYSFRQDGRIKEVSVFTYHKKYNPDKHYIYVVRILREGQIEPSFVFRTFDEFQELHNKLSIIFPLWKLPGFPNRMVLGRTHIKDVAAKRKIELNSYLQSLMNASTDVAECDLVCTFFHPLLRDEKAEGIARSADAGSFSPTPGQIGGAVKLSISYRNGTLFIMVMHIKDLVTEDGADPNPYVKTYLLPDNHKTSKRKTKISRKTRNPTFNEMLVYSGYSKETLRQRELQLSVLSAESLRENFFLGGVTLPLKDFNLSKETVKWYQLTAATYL", "test": "PI3-kinase C2α (type II PI3-kinase alpha) kinase assay", "type": "biochemical", "procedure": "as §2"}, "[2]": {"test": "Cytotoxicity CC50 in HeLa cells", "type": "cell-based", "conditions": "human"}, "p110α-p85 complex": {"target": "p110α-p85 complex (Homo sapiens, UniProt P42336)", "test": "PI3-kinase p110α-p85 complex lipid kinase assay", "type": "biochemical", "conditions": "read-out: IC50 PI3K 110a", "procedure": "as §1, with “Nat. Protoc.” for “Nat.”\nas §2"}, "HAV replicon (HAV-Bla)": {"test_system": "HAV replicon (HAV-Bla)", "test": "HAV assay: plating efficiency of Huh7-derived cells harboring blasticidin-selectable HAV replicon", "type": "cell-based"}}, "note": "Like-named read-outs stand apart in the source and are kept apart here.", "data": [{"smiles": "COc1ccc(-c2sc(NC(=O)C3CCCC3)nc2C)cc1S(=O)(=O)Nc1ccc(O)cc1", "note": "[PT423]", "values": [{"measurement": "IC50", "setting": "HA-tagged human PI4KIIIα", "result": 1750, "unit": "nM"}, {"measurement": "IC50", "setting": "p110γ", "result": 64, "unit": "nM"}, {"measurement": "IC50", "setting": "PI3K C2b", "result": 28, "unit": "nM"}, {"measurement": "CC50", "setting": "[1]", "result": "> 20000", "unit": "nM"}, {"measurement": "EC50", "setting": "human rhinovirus 14", "result": 0.32, "unit": "nM"}, {"measurement": "IC50", "setting": "PI3K C2a", "result": "> 10000", "unit": "nM"}, {"measurement": "CC50", "setting": "[2]", "result": 12600, "unit": "nM"}, {"measurement": "IC50", "setting": "p110α-p85 complex", "result": 65, "unit": "nM"}, {"measurement": "EC50", "setting": "HAV replicon (HAV-Bla); 336 h, read-out: EC50 (concentration at which plating efficiency is decreased by 50%), HAV-Bla cells, over two weeks culture", "result": "< 50", "unit": "nM"}, {"measurement": "EC50", "setting": "HAV replicon (HAV-Bla); read-out: (column without head; EC50 HAV)", "result": "< 50", "unit": "nM"}]}]}
